Values of other authors as cited in patent publication US20150108064A1, “Production Of Channel Type Cyclodextrin Crystals” (Amphidex A/S, priority 2012, published 2015).

Experiments:
[1] = maximum safe concentration in the air, worker exposed daily

Row | Solubility in H2O [g/100 g] | Structure (SMILES) | TLV [1] [ppm]
1 |  | C1CCOC1 [THF, Tetrahydrofuran] | 200
2 |  | CCCO [1-propanol] | 200
3 |  | CCCCCCC [Heptane] | 400
4 | 8.700 | CCOC(C)=O [Ethyl acetate] | 400
5 |  | CCO [Ethanol] | 1000
6 |  | ClC(Cl)Cl [Chloroform] | 10
7 | 0.001 | CCCCCC [Hexane] | 50
8 | 0.005 | C1CCCCC1 [Cyclohexane] | 300
9 |  | CC(C)=O [Acetone] | 500

Row | Structure (SMILES) | Solubility in H2O [g/100 g] | TLV [1] [ppm]
10 | CCCCC [Pentane] | 0.004 | 
